Measured values reported in patent US20240391954A1, “MC4R AGONIST PEPTIDES” (The Regents of the University of Michigan, priority 2021, published 2024).
Where two headings read alike, the source gives them in different places. Positions of bridges follow the written chain, without caps; N, C: chain ends. Non-standard residues stand in square brackets, D forms with d. Residues, ends and D or L forms follow the SMILES beside them. dDip = N[C@@H](C(=O)O)C(c1ccccc1)c1ccccc1; Phe(4-Br) = N[C@@H](Cc1ccc(Br)cc1)C(=O)O; dPhe(4-Br) = N[C@H](Cc1ccc(Br)cc1)C(=O)O; dPhe(4-I) = N[C@H](Cc1ccc(I)cc1)C(=O)O; 2Nal = N[C@@H](Cc1ccc2ccccc2c1)C(=O)O; d(hPhe) = N[C@H](CCc1ccccc1)C(=O)O; dNMeF = CN[C@H](Cc1ccccc1)C(=O)O; Nle = CCCC[C@H](N)C(=O)O

Tests used:
human MC4R = molecular target: T1, human MC4R (Homo sapiens, UniProt P32245); experiment: split-luciferase cAMP sensor assay, agonist mode (measurement window 1), hMC4R; type: cell-based; conditions: for Emax / EC50: agonist mode; for Emax: read-out: MC4R cAMP % max activation; for EC50: read-out: MC4R cAMP EC50
T1 construct: host or cells: HEK-293 cells stably expressing the GScAMP22F split-luciferase cAMP sensor and hMC4R, G418 selection
How it was run: (§1)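 Live stable cell lines carrying receptor plus GloSensor cAMP22f split-luciferase, loaded with 4% D-luciferin in serum-free medium (~1% serum estimated during assay). Luminescence recorded during in-line peptide addition; direct agonist effect read in window 1, with 20 μM forskolin as normalization reference. EC50 from four-parameter sigmoid fit.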

human MC3R = molecular target: T2, human MC3R (Homo sapiens, UniProt P41968); experiment: split-luciferase cAMP sensor assay, agonist mode (measurement window 1), hMC3R; type: cell-based; conditions: for Emax: read-out: MC3R cAMP % max activation; for EC50: read-out: MC3R cAMP EC50
T2 construct: expressed in transfected cells; host or cells: HEK-293 cells stably expressing the GScAMP22F split-luciferase cAMP sensor (parent reporter line from Promega); MC3R clone generated in-house, G418 selection
How it was run: as §1

[1] = agonist mode, hMC3R stable cell line

T2 sequence (P41968 whole entry): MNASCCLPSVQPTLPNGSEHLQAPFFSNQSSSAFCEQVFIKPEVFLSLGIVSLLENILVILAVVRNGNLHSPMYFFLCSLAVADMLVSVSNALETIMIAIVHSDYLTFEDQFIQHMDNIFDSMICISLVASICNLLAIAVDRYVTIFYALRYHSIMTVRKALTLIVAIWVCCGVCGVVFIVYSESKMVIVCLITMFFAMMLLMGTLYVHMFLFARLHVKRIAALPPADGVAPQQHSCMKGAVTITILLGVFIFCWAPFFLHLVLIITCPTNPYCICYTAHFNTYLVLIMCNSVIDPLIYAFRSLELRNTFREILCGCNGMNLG
T1 sequence (P32245 whole entry): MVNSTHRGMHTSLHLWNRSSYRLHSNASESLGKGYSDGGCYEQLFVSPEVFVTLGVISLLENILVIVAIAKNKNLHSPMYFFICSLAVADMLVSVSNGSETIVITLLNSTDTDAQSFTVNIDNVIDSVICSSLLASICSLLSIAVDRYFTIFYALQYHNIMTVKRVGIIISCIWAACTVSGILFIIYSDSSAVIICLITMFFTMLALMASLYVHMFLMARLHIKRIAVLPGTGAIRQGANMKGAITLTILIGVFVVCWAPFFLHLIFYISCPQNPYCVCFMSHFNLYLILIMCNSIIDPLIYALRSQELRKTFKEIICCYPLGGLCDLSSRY

SMILES	MC4R selectivity vs MC1R (human MC4R)	MC4R selectivity vs MC3R (human MC4R)	Emax (human MC4R; hMC4R stable cell line) [%]	EC50 (human MC4R; hMC4R stable cell line) [nM]	Emax (human MC3R; [1]) [%]	EC50 (human MC3R; [1]) [nM]	Emax (human MC4R; % maximal activation) [%]	Emax (human MC3R; % maximal activation, agonist mode) [%]	MC4R selectivity vs MC3R (human MC3R; MC4R versus MC3R)	MC3R cAMP % max activation (human MC3R; [1])
CCCC[C@H](NC(=O)[C@H](CCCNC(=N)N)NC(C)=O)C(=O)N[C@H]1CSSC[C@@H](C(N)=O)NC(=O)[C@H](Cc2c[nH]c3ccccc23)NC(=O)[C@H](CCCNC(=N)N)NC(=O)[C@@H](Cc2ccc(OC)cc2)NC(=O)[C@H](CCCNC(=N)N)NC1=O [CTX-1614, Arg-Nle-cyclo(Cys-Arg-D-Tyr(4-OMe)-Arg-Trp-Cys)] (Ac-R[Nle]CR[dY](Me)RWC-NH2; disulfide 3-8 (inferred))	0.08	1.89	41	1.7	28					
CC(=O)N[C@@H](CCCNC(=N)N)C(=O)N[C@H]1CSSC[C@@H](C(=O)N[C@@H](CCCNC(=N)N)C(=O)N[C@@H](Cc2ccccc2)C(N)=O)NC(=O)[C@@H](Cc2c[nH]c3ccccc23)NC(=O)[C@H](CCCNC(=N)N)NC(=O)[C@@H](Cc2ccc(Br)cc2)NC(=O)[C@H](CCCNC(=N)N)NC(=O)[C@@H](C)NC1=O [CTX-1220, Arg-cyclo(Cys-D-Ala-Arg-D-Phe(4-Br)-Arg-D-Trp-Cys)-Arg-Phe] (Ac-RC[dA]R[dPhe(4-Br)]R[dW]CRF-NH2; disulfide 2-8 (inferred))	1.53	3.82	76		21					
CC(=O)N[C@@H](CCCNC(=N)N)C(=O)N[C@H]1CSSC[C@@H](C(N)=O)NC(=O)[C@H](Cc2c[nH]c3ccccc23)NC(=O)[C@H](CCCNC(=N)N)NC(=O)[C@@H](Cc2ccc(Br)cc2)NC(=O)[C@@H]2CCCN2C(=O)[C@@H](C)NC1=O [CTX-2204, Arg-cyclo(Cys-D-Ala-Pro-D-Phe(4-Br)-Arg-Trp-Cys)] (Ac-RC[dA]P[dPhe(4-Br)]RWC-NH2; disulfide 2-8 (inferred))		0.19	13		0.2	11				
CC(=O)N[C@@H](CCCNC(=N)N)C(=O)N[C@H]1CSSC[C@@H](C(N)=O)NC(=O)[C@@H](Cc2c[nH]c3ccccc23)NC(=O)[C@H](CCCNC(=N)N)NC(=O)[C@H](Cc2ccc(Br)cc2)NC(=O)[C@H](CCCNC(=N)N)NC(=O)[C@@H](C)NC1=O [CTX-1215, Arg-cyclo(Cys-D-Ala-Arg-Phe(4-Br)-Arg-D-Trp-Cys)] (Ac-RC[dA]R[Phe(4-Br)]R[dW]C-NH2; disulfide 2-8 (inferred))	0.07	0.05	56		2.1	27				
CCCC[C@H](NC(C)=O)C(=O)N[C@H]1CSSC[C@@H](C(N)=O)NC(=O)[C@@H](Cc2c[nH]c3ccccc23)NC(=O)[C@H](CCCNC(=N)N)NC(=O)[C@@H](Cc2ccc(I)cc2)NC(=O)[C@H](Cc2c[nH]cn2)NC1=O [CTX-1234, Nle-cyclo(Cys-His-D-Phe(4-I)-Arg-D-Trp-Cys)] (Ac-[Nle]CH[dPhe(4-I)]R[dW]C-NH2; disulfide 2-7 (inferred))	0.2	1.32	16	2.6	18					
CC(=O)N[C@@H](CCCNC(=N)N)C(=O)N[C@H]1CSSC[C@@H](C(N)=O)NC(=O)[C@@H](Cc2c[nH]c3ccccc23)NC(=O)[C@H](CCCNC(=N)N)NC(=O)[C@@H](C(c2ccccc2)c2ccccc2)NC(=O)[C@H](CCCNC(=N)N)NC(=O)[C@@H](C)NC1=O [CTX-1280, Arg-cyclo(Cys-D-Ala-Arg-D-Dip-Arg-D-Trp-Cys)] (Ac-RC[dA]R[dDip]R[dW]C-NH2; disulfide 2-8 (inferred))	0.1	1.24	4		2.6					
CC(=O)N[C@@H](CCCNC(=N)N)C(=O)N[C@H]1CSSC[C@@H](C(N)=O)NC(=O)[C@@H](Cc2c[nH]c3ccccc23)NC(=O)[C@H](CCCNC(=N)N)NC(=O)[C@@H](Cc2ccccc2)N(C)C(=O)[C@H](CCCNC(=N)N)NC(=O)[C@@H](C)NC1=O [CTX-1272, Arg-cyclo(Cys-D-Ala-Arg-NMe-D-Phe-Arg-D-Trp-Cys)] (Ac-RC[dA]R[dNMeF]R[dW]C-NH2; disulfide 2-8 (inferred))	0.21	0.9	5.3		0.9					
CC(=O)N[C@@H](CCCNC(=N)N)C(=O)N[C@H]1CSSC[C@@H](C(N)=O)NC(=O)[C@H](Cc2c[nH]c3ccccc23)NC(=O)[C@H](CCCNC(=N)N)NC(=O)[C@H](Cc2ccc(Br)cc2)NC(=O)[C@H](CCCNC(=N)N)NC(=O)[C@@H](C)NC1=O [CTX-1212] (Ac-RC[dA]R[Phe(4-Br)]RWC-NH2; disulfide 2-8)	0.07	0.07	55		0.1	28				
CC(=O)N[C@@H](CCCNC(=N)N)C(=O)N[C@H]1CSSC[C@@H](C(N)=O)NC(=O)[C@@H](Cc2c[nH]c3ccccc23)NC(=O)[C@H](CCCNC(=N)N)NC(=O)[C@@H](CCc2ccccc2)NC(=O)[C@H](CCCNC(=N)N)NC(=O)[C@@H](C)NC1=O [CTX-1277, Arg-cyclo(Cys-D-Ala-Arg-D-Hph-Arg-D-Trp-Cys)] (Ac-RC[dA]R[d(hPhe)]R[dW]C-NH2; disulfide 2-8 (inferred))	0.05	0.1	29		5.2					
CC(=O)N[C@@H](CCCNC(=N)N)C(=O)N[C@H]1CSSC[C@@H](C(N)=O)NC(=O)[C@@H](Cc2c[nH]c3ccccc23)NC(=O)[C@H](CCCNC(=N)N)NC(=O)[C@@H](Cc2ccc(Br)cc2)NC(=O)[C@@H]2CCCN2C(=O)[C@@H](C)NC1=O [CTX-1249, Arg-cyclo(Cys-D-Ala-Pro-D-Phe(4-Br)-Arg-D-Trp-Cys)] (Ac-RC[dA]P[dPhe(4-Br)]R[dW]C-NH2; disulfide 2-8)	5.08	0.45	22	14	1.9					
CC(=O)N[C@@H](CCCNC(=N)N)C(=O)N[C@H]1CSSC[C@@H](C(N)=O)NC(=O)[C@@H](Cc2c[nH]c3ccccc23)NC(=O)[C@@H](CCCNC(=N)N)NC(=O)[C@@H](Cc2ccccc2)NC(=O)[C@H](CCCNC(=N)N)NC(=O)[C@@H](C)NC1=O [CTX-1283, Arg-cyclo(Cys-D-Ala-Arg-D-Phe-D-Arg-D-Trp-Cys)] (Ac-RC[dA]R[dF][dR][dW]C-NH2; disulfide 2-8)	0.03	0.12	55		7.8					
CC(=O)N[C@H]1CSSC[C@@H](C(N)=O)NC(=O)[C@H](Cc2ccccc2)NC(=O)[C@H](CCCNC(=N)N)NC(=O)[C@@H](Cc2ccc(Br)cc2)NC(=O)[C@H](CCCNC(=N)N)NC(=O)CNC1=O [CTX-1640, cyclo(Cys-Gly-Arg-D-Phe(4-Br)-Arg-Phe-Cys)] (Ac-CGR[dPhe(4-Br)]RFC-NH2; disulfide 1-7 (inferred))	3.72	3.09	100		27	10				
CCCC[C@H](NC(C)=O)C(=O)N[C@H]1CSSC[C@@H](C(=O)N[C@@H](CCCNC(=N)N)C(=O)N[C@@H](Cc2ccccc2)C(=O)NCC(N)=O)NC(=O)[C@@H](Cc2c[nH]c3ccccc23)NC(=O)[C@H](CCCNC(=N)N)NC(=O)[C@H](Cc2ccc3ccccc3c2)NC(=O)[C@H](Cc2c[nH]cn2)NC1=O [CTX-2128, Nle-cyclo(Cys-His-Nal(2′)-Arg-D-Trp-Cys)-Arg-Phe-Gly] (Ac-[Nle]CH[2Nal]R[dW]CRFG-NH2; disulfide 2-7 (inferred))							87	99	0.01	
CC(=O)N[C@@H](CCCNC(=N)N)C(=O)N[C@H]1CSSC[C@@H](C(N)=O)NC(=O)[C@@H](Cc2c[nH]c3ccccc23)NC(=O)[C@H](CCCNC(=N)N)NC(=O)[C@@H](Cc2c[nH]c3ccccc23)NC(=O)[C@H](CCCNC(=N)N)NC(=O)[C@@H](C)NC1=O [CTX-1275, Arg-cyclo(Cys-D-Ala-Arg-D-Trp-Arg-D-Trp-Cys)] (Ac-RC[dA]R[dW]R[dW]C-NH2; disulfide 2-8 (inferred))	0.22	0.27	24	906		248				(3.3%)
CC(=O)N[C@@H](CCCNC(=N)N)C(=O)N[C@H]1CSSC[C@@H](C(=O)N[C@@H](CCCCN)C(=O)N2CCC[C@H]2C(N)=O)NC(=O)[C@@H](Cc2c[nH]c3ccccc23)NC(=O)[C@H](CCCNC(=N)N)NC(=O)[C@@H](Cc2ccc(Br)cc2)NC(=O)[C@H](CCCNC(=N)N)NC(=O)[C@@H](C)NC1=O [CTX-1217, Arg-cyclo(Cys-D-Ala-Arg-D-Phe(4-Br)-Arg-D-Trp-Cys)-Lys-Pro] (Ac-RC[dA]R[dPhe(4-Br)]R[dW]CKP-NH2; disulfide 2-8)	1.12	2.73	69		13	4				
CC(=O)N[C@@H](CCCNC(=N)N)C(=O)N[C@H]1CSSC[C@@H](C(=O)N[C@@H](CCCNC(=N)N)C(=O)N[C@@H](Cc2ccccc2)C(=O)NCC(=O)O)NC(=O)[C@@H](Cc2c[nH]c3ccccc23)NC(=O)[C@H](CCCNC(=N)N)NC(=O)[C@@H](Cc2ccc(Br)cc2)NC(=O)[C@H](CCCNC(=N)N)NC(=O)[C@@H](C)NC1=O [CTX-1219] (Ac-RC[dA]R[dPhe(4-Br)]R[dW]CRFG-OH; disulfide 2-8 (inferred))	1	1.99	76	2.3	20	4.5				
